# From article PMC4471201, “Micafungin concentrations 100 mg daily in plasma and burn eschars in patients with severe burn injuries” (Critical Care, 2015)
# *1 amine or outer side, *2 acyl side, *3 side chain or, on linkers, in order; H or OH if unused. Where a SMILES comes first, the peptide text is derived from it. Bridges are numbered along the chain shown (N, C = ends). [ ]: non-standard residue; d: D form. The star is where a group is joined. hTyr(3S-OH,4S-OH,3'-OSO3H) = N[C@H](C(=O)O)[C@H](O)[C@@H](O)c1ccc(O)c(OS(=O)(=O)O)c1; Orn(4R-OH,5R-OH) = O=C([C@H](C[C@@H](O)[C@@H](O)N[*:3])N[*:1])[*:2]; Pro(3S-OH,4S-Me) = C[C@H]1CN[C@H](C(=O)O)[C@H]1O; X1 = CCCCCOc1ccc(-c2cc(-c3ccc(C(=O)*)cc3)no2)cc1; Gln(3R-OH) = NC(=O)C[C@@H](O)[C@H](N)C(=O)O; Hyp = O=C(O)[C@@H]1C[C@@H](O)CN1
# Assays:
# Assay type in all cases: in vivo
# [1] = Tolerability of MCF 100 mg/day in severely burned patients; settings: 10 severely burned patients
# Protocol: (§1) A PK study of MCF at standard dosage (100 mg/day). Cmax (end of the infusion) and Cmin (before next dose) plasma levels of MCF were obtained after first dose and at steady state (days 4 and 5 of therapy); and on day 5 in eschars (1 to 3 hours after infusion). They were measured by HPLC. Spearman's rho test was used for bivariate correlations between MCF exposure and patient's clinical factors.
# There were 10 patients (eight men; age: 18 to 77 years). […] Peak plasma concentrations after the first and repeated doses of MCF were inversely correlated with % burned TBSA (Spearman's ρ = -0.695 and -0.750 (P < 0.05)), respectively, but not with the time from burn injury. […] One patient had candidemia. The crude mortality was 40%.
# [2] = Plasma levels of MCF (Cmax/Cmin) in severely burned patients, HPLC; settings: 100 mg/day
# Protocol: as §1
# [3] = MCF levels in burn eschar tissue on day 5, HPLC; settings: Spearman's rho test; 10 patients
# Protocol: as §1
structure (smiles),measurement,setting,value
"CCCCCOc1ccc(-c2cc(-c3ccc(C(=O)N[C@H]4C[C@@H](O)[C@@H](O)NC(=O)[C@@H]5[C@@H](O)[C@@H](C)CN5C(=O)[C@H]([C@H](O)CC(N)=O)NC(=O)[C@H]([C@H](O)[C@@H](O)c5ccc(O)c(OS(=O)(=O)O)c5)NC(=O)[C@@H]5C[C@@H](O)CN5C(=O)[C@H]([C@@H](C)O)NC4=O)cc3)no2)cc1 [MCF, Micafungin] (X1-[Orn(4R-OH,5R-OH)]T[Hyp][hTyr(3S-OH,4S-OH,3'-OSO3H)][Gln(3R-OH)][Pro(3S-OH,4S-Me)]; lactam 1-C)",Tolerability,[1],well tolerated
same,Plasma levels compared with MIC90 against most clinically important Candida species,[2]; after first and multiple doses,above the MIC90
same,"Plasma Cmin after first dose, median","[2]; median of 10 patients, before next dose, plasma, HPLC",700 ng/mL
same,"Plasma Cmin at steady state, median","[2]; median of 10 patients, days 4 and 5 of therapy, before next dose, plasma, HPLC",1000 ng/mL
same,"Plasma Cmax at steady state, median","[2]; median of 10 patients, days 4 and 5 of therapy, end of the infusion, plasma, HPLC",6400 ng/mL
same,"Plasma Cmax after first dose, median","[2]; median of 10 patients, end of the infusion, plasma, HPLC",4700 ng/mL
same,Correlation of concentrations in burn eschars with % burned TBSA,[3],not correlated
